Source: patent publication US12552800B2, “Compounds for diagnosis” (AC IMMUNE SA, priority 2020, dated 2026)

Molecular target: T1, PD brain-derived a-syn aggregates (Homo sapiens, UniProt P37840)
T1 construct: from tissue; host or cells: human PD donor brain, sarkosyl-insoluble 100,000 x g pellet
Assay: Micro-radiobinding competition assay against Example-1 [^3H-1] (Table 8)
Assay type: binding
Details: for Competition at 100 nM (%): 100 nM non-radiolabelled example compound vs Example-1 [^3H-1] ligand; for Competition at 100 nM (%) / Competition at 1 μM (%): human PD brain-derived a-syn aggregates; for Competition at 1 μM (%): 1 μM non-radiolabelled example compound vs Example-1 [^3H-1] ligand
Description: PD brain-derived a-syn aggregates were spotted onto microarray slides. The slides were incubated with the Example-1 [^3H-1] at 6 nM or 20 nM and the example compounds (non-radiolabelled) at 1 μM and 100 nM. In some cases, the non-radiolabelled example compounds were further assessed for a range of different concentrations, varying from 0.05 nM to 2 μM. After incubation, slides were washed and scanned by a real-time autoradiography system (BeaQuant, ai4R). Quantification of the signal was performed by using the Beamage image analysis software (ai4R). […] All measurements were performed with at least two technical replicates. For compounds tested in more than one experiment, the mean of the replicates or K; values in independent experiments is reported.
Results: Example compounds were assessed for their potency to compete with the binding of Example-1 [^3H-1] ligand to PD patient brain-derived a-syn aggregates. Results of the micro-radiobinding competition assay for the example compounds tested are shown in Table 8 as: % competition at 1 μM and 100 nM.

Competition at 100 nM (%)	Competition at 1 μM (%)	Ki (mean of Ki values in independent experiments using PD brain-derived homogenates from two different donors) [nM]	Compound
67			N#Cc1cncc(N2Cc3nn(-c4ccc(N5CC[C@@H](F)C5)nc4)cc3C2=O)c1 [Example 109]
86	98		Cc1cc(N2Cc3nn(-c4ccc(N5CC[C@H](F)C5)nc4)cc3C2=O)ccn1 [Example 104]
41	70		O=C1c2cn(-c3ccc(N4CCCC4)nc3)nc2CN1c1ncccc1F [Example 103]
4	31		Cc1ncccc1N1Cc2nn(-c3ccc(N4CC[C@H](F)C4)nc3)cc2C1=O [Example 13]
35	84		O=C1c2cn(-c3ccc(N4CC[C@@H](F)C4)nc3)nc2CN1c1ncco1 [Example 137]
59	68		Cc1cc(N2Cc3nn(-c4ccc(N5CC[C@@H](F)C5)nc4)cc3C2=O)ccn1 [Example 102]
74			N#Cc1cccc(N2Cc3nn(-c4ccc(N5CC[C@@H](F)C5)nc4)cc3C2=O)n1 [Example 79]
46	76		Cn1ccc(-n2cc3c(n2)CN(c2cccc(F)n2)C3=O)n1 [Example 145]
13	54		O=C1c2cn(-c3ccc(N4CC[C@H](F)C4)nc3)nc2CN1c1ccccc1O [Example 176]
31	57		CC(C)c1ccc(-n2cc3c(n2)CN(c2cncc(F)n2)C3=O)cn1 [Example 153]
53	80		Cc1cccc(N2Cc3nn(-c4ccc(N5CC[C@@H](F)C5)nc4)cc3C2=O)c1 [Example 61]
75	83		O=C1c2cn(-c3ccc(N4CC[C@@H](F)C4)nc3)nc2CN1c1cncs1 [Example 126]
50	98		Cc1ccc(N2Cc3nn(-c4ccc(N5CC[C@H](F)C5)nc4)cc3C2=O)cn1 [Example 11]
32	70		O=C1c2cn(-c3ccc(N4CC[C@H](F)C4)nc3)nc2CN1c1cncnc1 [Example 16]
80	89		COc1cccc(N2Cc3nn(-c4ccc(N5CC[C@@H](F)C5)nc4)cc3C2=O)c1 [Example 34]
86			N#Cc1ccc(N2Cc3nn(-c4ccc(N5CC[C@H](F)C5)nc4)cc3C2=O)nc1 [Example 31]
67	96		CN(C)c1ccc(-n2cc3c(n2)CN(c2cccnc2)C3=O)cn1 [Example 135]
72	98		O=C1c2cn(-c3ccc(N4CC[C@@H](F)C4)nc3)nc2CN1c1cnsc1 [Example 131]
	84		N#Cc1ccc(N2Cc3nn(-c4ccc(N5CC[C@H](F)C5)nc4)cc3C2=O)cc1N [Example 21]

Competition at 100 nM (%)	Competition at 1 μM (%)	Ki (mean of Ki values in independent experiments using PD brain-derived homogenates from two different donors) [nM]	Compound
95	94		COc1ccnc(N2Cc3nn(-c4ccc(N5CC[C@H](F)C5)nc4)cc3C2=O)c1 [Example 77]
30	36		O=C1c2cn(-c3ccc(N4CC[C@H](F)C4)nc3)nc2CN1c1cccnc1O [Example 168]
44	85		O=C1c2cn(-c3ccc(N4CC[C@H](F)C4)nc3)nc2CN1c1ccnc(O)c1 [Example 172]
33	66		Cc1c2c(nn1-c1ccc(N3CC[C@H](F)C3)nc1)CN(c1ccccn1)C2=O [Example 73]
89	99		COc1ccc(N2Cc3nn(-c4ccc(N5CC[C@H](F)C5)nc4)cc3C2=O)nc1 [Example 28]
79	96		O=C1c2cn(-c3ccc(N4CC[C@@H](F)C4)nc3)nc2CN1c1ccc(F)cc1 [Example 63]
	81		N#Cc1cc(N2Cc3nn(-c4ccc(N5CC[C@@H](F)C5)nc4)cc3C2=O)ccc1N [Example 23]
44	87		O=C1c2cn(-c3ccc(N4CC[C@@H](F)C4)nc3)nc2CN1c1cccc(O)n1 [Example 164]
80	95		COc1ccc(N2Cc3nn(-c4ccc(N5CC[C@H](F)C5)nc4)cc3C2=O)cc1 [Example 30]
51	94		N#Cc1ccc(-n2cc3c(n2)CN(c2cncc(F)n2)C3=O)cn1 [Example 155]
81	99		O=C1c2cn(-c3ccc(C4CCCC4)nc3)nc2CN1c1cccc(F)n1 [Example 154]
26	29		Cc1c2c(nn1-c1ccc(N3CC[C@@H](F)C3)nc1)CN(c1cccnc1)C2=O [Example 52]
18	51		O=C1c2cn(-c3ccc(NC4CC(F)C4)nc3)nc2CN1c1ccncc1 (stereo not drawn) [Example 90]
59			Cn1cnc(N2Cc3nn(-c4ccc(N5CC[C@@H](F)C5)nc4)cc3C2=O)c1 [Example 133]
32	53		Cc1c2c(nn1-c1ccc(N3CCCC3)nc1)CN(c1cncc(F)n1)C2=O [Example 146]
74	91		COc1cccc(N2Cc3nn(-c4ccc(N5CC[C@H](F)C5)nc4)cc3C2=O)c1 [Example 36]
88			N#Cc1ccc(N2Cc3nn(-c4ccc(N5CC[C@@H](F)C5)nc4)cc3C2=O)cn1 [Example 57]
92	98		O=C1c2cn(-c3ccc(N4CCCC4)nc3)nc2CN1c1ccc(F)cn1 [Example 115]
77	96		O=C1c2cn(-c3ccc(N4CC[C@@H](F)C4)nc3)nc2CN1c1ccc(O)cc1 [Example 180]

Competition at 100 nM (%)	Competition at 1 μM (%)	Ki (mean of Ki values in independent experiments using PD brain-derived homogenates from two different donors) [nM]	Compound
32	73		O=C1c2cn(-c3ccc(N4CC[C@H](F)C4)nc3)nc2CN1c1cncc(F)c1 [Example 92]
32	57		O=C1c2cn(-c3ccc(F)cn3)nc2CN1c1cccnc1 [Example 138]
78	92	52	O=C1c2cn(-c3ccc(N4CCOCC4)nc3)nc2CN1c1nccnc1F [Example 45]
21	43		CC(C)c1ccc(-n2cc3c(n2)CN(c2cccc(F)n2)C3=O)cn1 [Example 157]
78			O=C1c2cn(-c3ccc(N4CCCC4)nc3)nc2CN1c1cc(F)ccn1 [Example 100]
75			N#Cc1ccnc(N2Cc3nn(-c4ccc(N5CC[C@H](F)C5)nc4)cc3C2=O)c1 [Example 88]
69	90		COc1ccc(N2Cc3nn(-c4ccc(N5CC[C@H](F)C5)nc4)cc3C2=O)cn1 [Example 9]
70	71		Cc1ccc(N2Cc3nn(-c4ccc(N5CC[C@@H](F)C5)nc4)cc3C2=O)cc1 [Example 60]
76	100		O=C1c2cn(-c3ccc(N4CC[C@@H](F)C4)nc3)nc2CN1c1cccc(O)c1 [Example 177]
27	54		Cc1c2c(nn1-c1ccc(N3CC[C@H](F)C3)nc1)CN(c1cccnc1)C2=O [Example 53]
42	77		O=C1c2cn(-c3ccc(N4CC[C@@H](F)C4)nc3)nc2CN1c1cncnc1 [Example 14]
	97		N#Cc1ccc(N2Cc3nn(-c4ccc(N5CC[C@@H](F)C5)nc4)cc3C2=O)cc1N [Example 24]
29	75		O=C1c2cn(-c3ccc(NC4CC(F)C4)nc3)nc2CN1c1ccccn1 (stereo not drawn) [Example 89]
84			Cc1ccnc(N2Cc3nn(-c4ccc(N5CC[C@H](F)C5)nc4)cc3C2=O)c1 [Example 82]
80	95		O=C1c2cn(-c3ccc(N4CC[C@H](F)C4)nc3)nc2CN1c1ccc(O)cc1 [Example 179]
37	46		Cn1cc(-n2cc3c(n2)CN(c2cccc(F)n2)C3=O)cn1 [Example 150]
85	105		Cc1ccc(N2Cc3nn(-c4ccc(N5CC[C@H](F)C5)nc4)cc3C2=O)nc1 [Example 112]
93			N#Cc1ccc(N2Cc3nn(-c4ccc(N5CC[C@@H](F)C5)nc4)cc3C2=O)cc1 [Example 56]

Compound	Competition at 100 nM (%)	Competition at 1 μM (%)	Ki (mean of Ki values in independent experiments using PD brain-derived homogenates from two different donors) [nM]
N#Cc1ccc(N2Cc3nn(-c4ccc(N5CCCC5)nc4)cc3C2=O)cc1F [Example 55]	11	38	
COc1ccc(N2Cc3nn(-c4ccc(N5CC[C@@H](F)C5)nc4)cc3C2=O)cn1 [Example 8]	67	91	
